Data from patent US20120301468A1, “ANTI-MN ANTIBODIES AND METHODS OF USING SAME” (BAYER HEALTHCARE LLC, priority 2005, published 2012).

Columns and labels:
[1] = system: 13 other carbonic anhydrases; experiment: Binding to other carbonic anhydrases
[2] = system: MN non-expressing cells (H460); experiment: Spindle formation / tubulin staining, H460; assay type: cell-based; conditions: tubulin stained with fluorescence labeled antibody
Text: The cytotoxic drug MMAE delivered by 3ee9/MMAE is a tubulin inhibitor that prevents spindle formation during cell mitosis resulting in G2/M arrest. The tubulin is stained with florescence labeled antibody. […] These studies confirmed that the antibody drug conjugate 3ee9/MMAE kills cell through targeted tubulin disruption.

[3] = system: HT-29 human CRC xenograft; experiment: HT-29 subcutaneous xenograft model; assay type: in vivo, athymic NCr (nu/nu) mice; conditions: for TGI: end of dosing
Experimental: When tumors reached an average size of ˜120 mg (5 days), treatment was initiated. […] In addition, MMAE was assessed as a free drug at a dose of 0.1, 0.2 and 1 mg/kg. The 0.1 and 0.2 mg/Kg doses of MMAE represent equivalent amounts of this drug to those present on 5 and 10 mg/Kg 3ee9/MMAE respectively.
Anti-tumor effect of 3ee9/MMAE was also assessed in varying schedules, i.e., once a week dosing for total of two doses (Q7Dx2, FIG. 20) and a single dose at the time of staging (Q1Dx1, FIG. 21). In both schedules, 3ee9/MMAE was dosed at 0.625, 1.25, 2.5, 5 and 10 mg/kg.

Colo-205 CRC xenograft = experiment: Colo-205 subcutaneous xenograft model
Text: The in vivo anti-tumor effect of 3ee9/MMAE was examined in 6 different human xenograft tumor models. These models were established through subcutaneous implantation of human tumor cells into female athymic NCr (nu/nu) mice (Taconic, N.Y.). The human tumor xenograft models evaluated included the MaTu human mammary carcinoma model, the HT-29 and Colo-205 human colo-rectal carcinoma (CRC) models, PC3MM2 prostate carcinoma model, the HCT-15 multi-drug resistant (P-gp) CRC model, and the MiaPaCa2 human pancreatic model. PBS was used as a vehicle, and dosing solutions were prepared fresh daily. The dosing volume was 0.1 mL/10 g (10 mL/kg).
The length and width of each tumor were measured using an electronic caliper 2-3 times per week, and tumor weights (mg) were calculated based on the formula of [length (mm)×width (mm)^2]/2. All data, including daily observations, obtained throughout the course of the study were documented in Anti-tumor Data Acquisition System (ADAS). […] Tumor growth inhibition (TGI) was calculated as (1-T/C)×100, where T=final tumor weights from a treated group after the last dose, and C=final tumor weights from the control group after the last dose. In addition, anti-tumor efficacy was measured as the incidence of responses (or responders or regressions) defined as tumors with ≦50% of their initial size. A minimum duration of 7 days is required for a response to be considered durable.
The anti-tumor activity of 3ee9/MMAE was next evaluated against human prostate (PC-3 mm2) and CRC (Colo-205) tumor xenografts. Female NCr nu/nu mice were implanted subcutaneously (s.c.) either with 5×10^6 PC3 mm2 or Colo-205 cells. Treatment was initiated when tumors were of an average size of approximately 125-150 mg. The general health of mice was monitored and recorded daily. Tumor dimensions and body weights were recorded twice a week starting with the first day of treatment.
In the PC3 mm2 and Colo-205 studies, 3ee9/MMAE was administered intravenously (i.v.) once every 4th day for a total of 3 injections (Q4Dx3) at doses of 1, 3, 10 and 30 mg/kg and 1.25, 2.5, 5 and 10 mg/kg, respectively.
The feasibility of using 3ee9/MMAE in conjunction with other cancer chemotherapeutic agents was investigated. Xeloda® is used as first line treatment of patients with metastatic colorectal carcinoma. The activity and tolerability of combined therapy using 3ee9/MMAE and Xeloda® was evaluated. 3ee9/MMAE was administered i.v. on a Q4Dx3 schedule and at dose levels of 1.25, 2.5 and 10 mg/kg. Xeloda® was administered orally once daily for 9 days at dose levels of 250 and 500 mg/kg.

[4] = system: high MN-expressing huMN-MIAPaCa2 xenograft; experiment: huMN-MIAPaCa2 xenograft model; assay type: in vivo, mice; conditions: for TGI: end of dosing
Experimental: To better understand the relationship between MN expression and antitumor efficacy, xenograft efficacy studies were conducted using a low MN-expressing pancreatic model, MIAPaCa2 and high MN-expressing huMN-MIAPaCa2 model. This latter line was derived by engineering the MIAPaCa2 line to stably express MN. […] 3ee9/MMAE dosed at 10 mg/kg only produced 50% TGI.

[5] = Colo-205, 1.25 mg/kg/inj Q4D × 3 IV
[6] = Colo-205, 2.5 mg/kg/inj Q4D × 3 IV
[7] = Colo-205, 10 mg/kg/inj Q4D × 3 IV

3ee9/MMAE: human anti-MN IgG1 antibody 3ee9 conjugated to Monomethylauristatin E (MMAE)
binding to other carbonic anhydrases [1]: no detectable binding | effect on spindle formation [2]: No activity | TGI ([3]; HT-29, 0.625 mg/kg Q4Dx3): 54% | % Inhibition (1-T/D)*100 (Day 18) ([3]; HT-29, 0.625 mg/kg, Q1D × 1): 42% | Percent Regressions ([3]; HT-29, 0.625 mg/kg, Q1D × 1): 0% | % Inhibition (1-T/D)*100 (Day 18) ([3]; HT-29, 0.625 mg/kg, Q4D × 3): 54% | Percent Regressions ([3]; HT-29, 0.625 mg/kg, Q4D × 3): 0% | % Inhibition (1-T/D)*100 (Day 18) ([3]; HT-29, 0.625 mg/kg, Q7D × 2): 48% | Percent Regressions ([3]; HT-29, 0.625 mg/kg, Q7D × 2): 0% | animals showing regressions ([3]; HT-29, 1.25 mg/kg Q4Dx3): 20% | TGI ([3]; HT-29, 1.25 mg/kg Q4Dx3): 72% | % Inhibition (1-T/D)*100 (Day 18) ([3]; HT-29, 1.25 mg/kg, Q1D × 1): 48% | Percent Regressions ([3]; HT-29, 1.25 mg/kg, Q1D × 1): 0% | % Inhibition (1-T/D)*100 (Day 18) ([3]; HT-29, 1.25 mg/kg, Q4D × 3): 72% | Percent Regressions ([3]; HT-29, 1.25 mg/kg, Q4D × 3): 2% | % Inhibition (1-T/D)*100 (Day 18) ([3]; HT-29, 1.25 mg/kg, Q7D × 2): 71% | Percent Regressions ([3]; HT-29, 1.25 mg/kg, Q7D × 2): 0% | regressions ([3]; HT-29, 2.5 mg/kg Q4Dx3): 90% | TGI ([3]; HT-29, 2.5 mg/kg Q4Dx3): 97% | % Inhibition (1-T/D)*100 (Day 18) ([3]; HT-29, 2.5 mg/kg, Q1D × 1): 93% | Percent Regressions ([3]; HT-29, 2.5 mg/kg, Q1D × 1): 5% | % Inhibition (1-T/D)*100 (Day 18) ([3]; HT-29, 2.5 mg/kg, Q4D × 3): 97% | Percent Regressions ([3]; HT-29, 2.5 mg/kg, Q4D × 3): 9% | % Inhibition (1-T/D)*100 (Day 18) ([3]; HT-29, 2.5 mg/kg, Q7D × 2): 92% | TGI ([3]; HT-29, 5 mg/kg Q4Dx3): 100% | % Inhibition (1-T/D)*100 (Day 18) ([3]; HT-29, 5 mg/kg, Q1D × 1): 98% | Percent Regressions ([3]; HT-29, 5 mg/kg, Q1D × 1): 8% | % Inhibition (1-T/D)*100 (Day 18) ([3]; HT-29, 5 mg/kg, Q4D × 3): 100% | Percent Regressions ([3]; HT-29, 5 mg/kg, Q4D × 3): 10% | % Inhibition (1-T/D)*100 (Day 18) ([3]; HT-29, 5 mg/kg, Q7D × 2): 96% | Percent Regressions ([3]; HT-29, 5 mg/kg, Q7D × 2): 7% | TGI ([3]; HT-29, 10 mg/kg Q4Dx3): 100% | % Inhibition (1-T/D)*100 (Day 18) ([3]; HT-29, 10 mg/kg, Q1D × 1): 100% | Percent Regressions ([3]; HT-29, 10 mg/kg, Q1D × 1): 10% | % Inhibition (1-T/D)*100 (Day 18) ([3]; HT-29, 10 mg/kg, Q4D × 3): 100% | Percent Regressions ([3]; HT-29, 10 mg/kg, Q4D × 3): 10% | % Inhibition (1-T/D)*100 (Day 18) ([3]; HT-29, 10 mg/kg, Q7D × 2): 100% | Percent Regressions ([3]; HT-29, 10 mg/kg, Q7D × 2): 10% | tolerability ([3]; HT-29, 0.625 to 10 mg/kg i.v. Q4Dx3): well tolerated at all doses examined | responses ([3]; HT-29, 5 and 10 mg/kg Q4Dx3): 100% | anti-tumor effect in varying schedules ([3]; HT-29, Q7Dx2 and Q1Dx1, 0.625 to 10 mg/kg): highly effective in inhibiting the growth | anti-tumor effects ([3]; HT-29 human colo-rectal cancer xenograft model): anti-tumor effects were seen | % Inhibition (T/C) (d 17) (Colo-205 CRC xenograft; [5]): 30.6% | % Regressions (Colo-205 CRC xenograft; [5]): 0% | % Weight Loss (d 17) (Colo-205 CRC xenograft; [5]): 0.5% | TGI (Colo-205 CRC xenograft; Colo-205, 2.5 mg/kg i.v. Q4Dx3, end of dosing): > 70% | % Inhibition (T/C) (d 17) (Colo-205 CRC xenograft; [6]): 73% | % Regressions (Colo-205 CRC xenograft; [6]): 0% | % Weight Loss (d 17) (Colo-205 CRC xenograft; [6]): 0.1% | responses (regressions) (Colo-205 CRC xenograft; Colo-205, 5 mg/kg Q4Dx3): 40% | responses (regressions) (Colo-205 CRC xenograft; Colo-205, 10 mg/kg Q4Dx3): 80% | % Inhibition (T/C) (d 17) (Colo-205 CRC xenograft; [7]): 96.2% | % Regressions (Colo-205 CRC xenograft; [7]): 80% | % Weight Loss (d 17) (Colo-205 CRC xenograft; [7]): 0.9% | TGI (Colo-205 CRC xenograft; Colo-205, 5 and 10 mg/kg i.v. Q4Dx3, end of dosing): > 90% | TGI (Colo-205 CRC xenograft; Colo-205, alone 1.25 mg/kg i.v. Q4Dx3): 31% | TGI (Colo-205 CRC xenograft; Colo-205, alone 2.5 mg/kg i.v. Q4Dx3): 73% | response rate (Colo-205 CRC xenograft; Colo-205, alone 10 mg/kg): 80% | TGI (Colo-205 CRC xenograft; Colo-205, alone 10 mg/kg i.v. Q4Dx3): 96% | anti-tumor effect (Colo-205 CRC xenograft; Colo-205, lowest dose, 1 mg/kg): relatively ineffective | anti-tumor effects (Colo-205 CRC xenograft; Colo-205 human colo-rectal cancer xenograft model): anti-tumor effects were seen | TGI ([4]; 2.5 mg/kg): 63% | TGI ([4]; 5 mg/kg): 82% | responses ([4]; 10 mg/kg): 100% | TGI ([4]; 10 mg/kg): 94%
